Assay results from PMC3866693 (Journal of medicinal chemistry, 2013).
Blank lines part the entries; values can stand above or below the molecule they belong to.

How the values were obtained:
human mGluR1 [1] = details: VS = fP × Bmax/KD; cited from earlier work
rat mGluR1 = details: VS = fP × Bmax/KD; cited from earlier work
human mGluR1 [2] = details: read-out: IC50 (affinity for mGluR1); human mGluR1, reported; cited from earlier work
mGluR1 in monkey brain [3] = assay: PET baseline experiment in rhesus monkey, brain radioactivity uptake; assay type: in vivo, rhesus monkey (Macaca mulatta)
rat BZP site = assay: NIMH PDSP binding screen
GABAA = assay: NIMH PDSP binding screen; parameters: species or system human
NMDA = assay: NIMH PDSP binding screen; parameters: species or system human
mGluR1 = mGluR1 (Rattus norvegicus, UniProt P23385); assay: stimulation of phosphoinositide hydrolysis, cloned rat receptors; assay type: cell-based; details: 10 μM
mGluR5 = mGluR5 (Rattus norvegicus, UniProt P31424); assay: as above; assay type: cell-based; details: 10 μM
[4] = compared with 7; cited from earlier work
mGluR1 in monkey brain [5] = biological target: mGluR1 in monkey brain (Macaca mulatta, UniProt I2CU04); assay: PET preblock and challenge experiments with mGluR1 antagonist in rhesus monkey; assay type: in vivo, rhesus monkey (Macaca mulatta)
mGluR5 in monkey brain = mGluR5 in monkey brain (Macaca mulatta, UniProt A0ACM8QRY8); assay: PET challenge experiment with mGluR5-selective ligand in rhesus monkey; assay type: in vivo, rhesus monkey (Macaca mulatta); details: 5 mg/kg i.v. at 30 min after [^18F]11, third monkey
Sequence of mGluR5 in monkey brain (A0ACM8QRY8 19-1212): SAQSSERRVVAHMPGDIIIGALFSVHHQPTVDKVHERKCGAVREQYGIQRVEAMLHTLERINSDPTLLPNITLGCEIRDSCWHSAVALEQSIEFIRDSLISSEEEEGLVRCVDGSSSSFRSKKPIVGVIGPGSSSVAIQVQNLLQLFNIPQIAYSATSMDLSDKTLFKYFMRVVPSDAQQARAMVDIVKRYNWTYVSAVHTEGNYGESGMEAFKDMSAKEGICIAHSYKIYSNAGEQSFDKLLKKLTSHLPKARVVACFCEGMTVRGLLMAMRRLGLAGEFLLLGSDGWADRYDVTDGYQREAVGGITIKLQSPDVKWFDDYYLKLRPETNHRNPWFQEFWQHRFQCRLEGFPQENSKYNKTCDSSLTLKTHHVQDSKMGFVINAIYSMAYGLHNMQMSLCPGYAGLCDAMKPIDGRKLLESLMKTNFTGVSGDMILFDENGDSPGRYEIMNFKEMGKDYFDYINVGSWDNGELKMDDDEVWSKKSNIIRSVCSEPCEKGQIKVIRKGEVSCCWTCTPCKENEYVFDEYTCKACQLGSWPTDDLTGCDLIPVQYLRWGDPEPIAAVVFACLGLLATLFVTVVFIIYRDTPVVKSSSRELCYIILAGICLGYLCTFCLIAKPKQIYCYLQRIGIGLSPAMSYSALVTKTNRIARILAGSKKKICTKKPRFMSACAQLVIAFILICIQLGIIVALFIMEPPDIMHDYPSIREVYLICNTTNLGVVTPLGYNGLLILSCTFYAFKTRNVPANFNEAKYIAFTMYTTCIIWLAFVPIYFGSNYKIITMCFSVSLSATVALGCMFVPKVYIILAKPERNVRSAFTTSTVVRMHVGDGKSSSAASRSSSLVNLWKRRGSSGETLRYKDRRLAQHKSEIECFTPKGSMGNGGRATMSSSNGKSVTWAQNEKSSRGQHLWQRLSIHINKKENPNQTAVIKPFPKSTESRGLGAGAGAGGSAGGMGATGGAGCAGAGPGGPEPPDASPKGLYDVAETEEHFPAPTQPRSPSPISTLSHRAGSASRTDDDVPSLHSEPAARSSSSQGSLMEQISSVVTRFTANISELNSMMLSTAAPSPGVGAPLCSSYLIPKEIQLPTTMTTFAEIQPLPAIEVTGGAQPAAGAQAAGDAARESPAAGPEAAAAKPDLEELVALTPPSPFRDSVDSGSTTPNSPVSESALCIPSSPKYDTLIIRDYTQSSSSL

Sequence of mGluR1 in monkey brain (Macaca mulatta, UniProt I2CU04) (I2CU04 19-1195): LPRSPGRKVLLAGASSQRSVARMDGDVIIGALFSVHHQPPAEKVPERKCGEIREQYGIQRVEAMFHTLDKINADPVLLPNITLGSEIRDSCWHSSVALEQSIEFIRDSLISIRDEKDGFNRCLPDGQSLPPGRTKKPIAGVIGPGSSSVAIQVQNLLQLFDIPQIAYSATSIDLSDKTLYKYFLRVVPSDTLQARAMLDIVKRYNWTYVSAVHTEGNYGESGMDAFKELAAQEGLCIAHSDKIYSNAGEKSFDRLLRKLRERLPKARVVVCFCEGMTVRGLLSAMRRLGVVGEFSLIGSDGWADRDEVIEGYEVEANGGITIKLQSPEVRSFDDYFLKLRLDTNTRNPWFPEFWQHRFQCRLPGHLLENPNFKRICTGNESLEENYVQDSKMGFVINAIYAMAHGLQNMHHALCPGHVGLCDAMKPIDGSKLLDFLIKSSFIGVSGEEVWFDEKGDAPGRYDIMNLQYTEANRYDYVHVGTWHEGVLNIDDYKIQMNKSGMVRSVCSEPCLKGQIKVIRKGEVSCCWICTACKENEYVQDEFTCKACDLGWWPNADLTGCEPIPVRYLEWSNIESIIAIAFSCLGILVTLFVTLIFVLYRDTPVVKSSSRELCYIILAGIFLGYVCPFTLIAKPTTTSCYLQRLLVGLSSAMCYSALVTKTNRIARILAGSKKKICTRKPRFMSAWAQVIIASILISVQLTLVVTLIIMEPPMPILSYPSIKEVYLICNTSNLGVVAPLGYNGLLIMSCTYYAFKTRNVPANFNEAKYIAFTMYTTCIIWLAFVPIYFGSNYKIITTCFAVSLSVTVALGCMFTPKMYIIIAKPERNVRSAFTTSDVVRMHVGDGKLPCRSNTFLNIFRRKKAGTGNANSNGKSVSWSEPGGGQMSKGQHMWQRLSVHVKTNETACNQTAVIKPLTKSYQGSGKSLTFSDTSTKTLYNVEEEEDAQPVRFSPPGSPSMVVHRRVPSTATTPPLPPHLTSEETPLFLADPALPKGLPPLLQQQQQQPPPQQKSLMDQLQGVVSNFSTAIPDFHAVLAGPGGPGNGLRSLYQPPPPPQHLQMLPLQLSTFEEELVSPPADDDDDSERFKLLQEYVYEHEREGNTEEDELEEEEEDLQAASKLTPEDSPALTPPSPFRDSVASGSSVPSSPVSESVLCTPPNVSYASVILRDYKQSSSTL
Sequence of mGluR5 (P31424 21-1203): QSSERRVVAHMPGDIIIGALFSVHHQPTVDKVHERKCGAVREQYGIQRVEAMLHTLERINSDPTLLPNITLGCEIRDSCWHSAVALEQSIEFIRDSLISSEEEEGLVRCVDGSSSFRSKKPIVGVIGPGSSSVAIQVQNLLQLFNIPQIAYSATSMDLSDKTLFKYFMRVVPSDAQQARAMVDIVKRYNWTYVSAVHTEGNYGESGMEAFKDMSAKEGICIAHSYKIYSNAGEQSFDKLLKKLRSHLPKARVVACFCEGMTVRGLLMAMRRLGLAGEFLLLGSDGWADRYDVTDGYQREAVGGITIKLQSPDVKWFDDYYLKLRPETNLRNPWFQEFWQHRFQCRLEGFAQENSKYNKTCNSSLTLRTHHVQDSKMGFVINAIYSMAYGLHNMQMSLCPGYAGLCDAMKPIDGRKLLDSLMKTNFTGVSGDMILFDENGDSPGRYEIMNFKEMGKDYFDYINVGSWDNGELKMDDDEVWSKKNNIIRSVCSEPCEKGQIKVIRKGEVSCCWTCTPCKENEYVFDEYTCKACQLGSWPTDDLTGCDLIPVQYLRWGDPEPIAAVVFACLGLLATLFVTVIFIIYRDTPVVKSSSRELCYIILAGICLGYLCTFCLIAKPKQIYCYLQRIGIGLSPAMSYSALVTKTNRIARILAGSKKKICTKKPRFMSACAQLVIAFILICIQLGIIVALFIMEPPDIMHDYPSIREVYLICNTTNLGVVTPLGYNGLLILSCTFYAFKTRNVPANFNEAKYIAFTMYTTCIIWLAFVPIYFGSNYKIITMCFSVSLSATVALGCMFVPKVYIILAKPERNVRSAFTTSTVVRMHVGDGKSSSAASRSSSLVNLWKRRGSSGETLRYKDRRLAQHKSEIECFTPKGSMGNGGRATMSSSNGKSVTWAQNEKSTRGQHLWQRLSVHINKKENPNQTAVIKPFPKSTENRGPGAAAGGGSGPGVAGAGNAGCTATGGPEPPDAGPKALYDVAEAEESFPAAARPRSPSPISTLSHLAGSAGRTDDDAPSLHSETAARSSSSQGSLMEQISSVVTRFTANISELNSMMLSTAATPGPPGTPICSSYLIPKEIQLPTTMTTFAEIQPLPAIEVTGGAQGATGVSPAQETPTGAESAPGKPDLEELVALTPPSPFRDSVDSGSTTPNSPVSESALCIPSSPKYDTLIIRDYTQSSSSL
Sequence of mGluR1 (P23385 19-1199): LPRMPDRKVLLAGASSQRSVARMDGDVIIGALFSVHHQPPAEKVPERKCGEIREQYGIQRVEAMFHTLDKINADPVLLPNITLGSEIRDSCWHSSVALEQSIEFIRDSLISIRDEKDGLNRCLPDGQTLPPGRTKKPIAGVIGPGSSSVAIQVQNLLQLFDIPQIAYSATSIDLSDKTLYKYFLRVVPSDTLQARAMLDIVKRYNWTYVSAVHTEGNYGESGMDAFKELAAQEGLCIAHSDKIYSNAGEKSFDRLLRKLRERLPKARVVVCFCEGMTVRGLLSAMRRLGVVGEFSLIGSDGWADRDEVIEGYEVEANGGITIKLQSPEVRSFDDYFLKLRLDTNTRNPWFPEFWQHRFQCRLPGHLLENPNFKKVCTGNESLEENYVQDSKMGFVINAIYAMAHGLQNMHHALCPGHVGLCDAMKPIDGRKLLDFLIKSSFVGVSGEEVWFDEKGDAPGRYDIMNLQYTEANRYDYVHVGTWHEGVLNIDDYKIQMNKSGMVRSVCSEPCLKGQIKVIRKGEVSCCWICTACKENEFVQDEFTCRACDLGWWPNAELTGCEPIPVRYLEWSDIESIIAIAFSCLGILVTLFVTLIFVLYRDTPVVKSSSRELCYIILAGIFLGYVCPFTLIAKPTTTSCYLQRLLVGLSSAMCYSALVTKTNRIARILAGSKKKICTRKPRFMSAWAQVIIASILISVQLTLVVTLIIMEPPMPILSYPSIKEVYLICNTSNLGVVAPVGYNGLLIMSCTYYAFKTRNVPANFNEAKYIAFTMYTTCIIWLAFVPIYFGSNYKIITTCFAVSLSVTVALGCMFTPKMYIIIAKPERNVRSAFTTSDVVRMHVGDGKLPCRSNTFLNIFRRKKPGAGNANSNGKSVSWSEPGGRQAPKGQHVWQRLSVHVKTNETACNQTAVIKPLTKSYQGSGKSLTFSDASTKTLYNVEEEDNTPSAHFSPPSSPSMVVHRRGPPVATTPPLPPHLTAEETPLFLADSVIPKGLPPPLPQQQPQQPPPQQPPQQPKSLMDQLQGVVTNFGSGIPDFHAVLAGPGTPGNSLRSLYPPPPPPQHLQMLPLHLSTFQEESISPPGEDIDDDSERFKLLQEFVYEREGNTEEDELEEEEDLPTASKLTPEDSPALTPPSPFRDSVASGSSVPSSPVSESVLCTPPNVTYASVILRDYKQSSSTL

SMILES: Cc1c(-c2ccc(O[11CH3])cc2)nsc1NC(=O)[C@@H]1C[C@H]1C [[^11C]6]
effective binding potential (VS) (human mGluR1 [1]): 0.0161
effective binding potential (VS) (rat mGluR1): 0.683

SMILES: CC(C)Nc1cc(-c2csc(N(C)C(=O)c3ccc(F)cc3)n2)ncn1 [[^18F]7, reference compound]
IC50 (human mGluR1 [2]): 5.1 nM

radiodefluorination (radioactivity uptake in skull) (mGluR1 in monkey brain [3]; all PET experiments in monkey): negligible
SMILES: CNc1cc(-c2csc(N(C)C(=O)c3ccc([18F])cc3)n2)ncn1 [[^18F]11, [^18F]4-Fluoro-N-methyl-N-(4-(6-(methylamino)pyrimidin-4-yl)thiazol-2-yl)benzamide]
decrease of cerebellum radioactivity from peak (mGluR1 in monkey brain [3]; baseline, at end of 2-h scan (120 min)): 47%

Ki (rat BZP site): > 10000 nM
Ki (GABAA): > 10000 nM
Ki (NMDA): > 10000 nM
efficacy at mGluR1 (stimulation of phosphoinositide hydrolysis) (mGluR1): antagonist
efficacy at mGluR5 (stimulation of phosphoinositide hydrolysis) (mGluR5): antagonist
SMILES: CNc1cc(-c2csc(N(C)C(=O)c3ccc(F)cc3)n2)ncn1 [compound 11, 4-Fluoro-N-methyl-N-(4-(6-(methylamino)pyrimidin-4-yl)thiazol-2-yl)benzamide]
IC50 (human mGluR1 [2]): 1.8 nM
extent of metabolism in human liver microsomes [4]: metabolized more extensively than 7

distribution of [^18F]11 radioactivity across brain after preblock (mGluR1 in monkey brain [5]; 3 mg/kg i.v. at 5 min before [^18F]11): low and uniform
SMILES: CO[C@H]1CC[C@@H](C(=O)c2ccc3nc4c(cc3c2)CCCO4)CC1 [compound 17]
effect on [^18F]11 brain radioactivity after challenge (mGluR1 in monkey brain [5]; 3 mg/kg i.v. at 30 min after [^18F]11, second monkey): rapid decrease in radioactivity at all mGluR1-containing regions

SMILES: Cc1nc(C#Cc2cccnc2)cs1 [compound 18, 3-((2-methyl-4-thiazolyl)ethynyl)pyridine]
effect on [^18F]11 brain washout kinetics after challenge (mGluR5 in monkey brain): no change in the washout kinetics from any brain region
